Calls of active or inactive are those of the source. No cut-off for these calls is given here.
target: T1, Amyloid-beta precursor protein (Homo sapiens, UniProt P05067); assay: Disaggregation of Cu2+-induced amyloid beta (1 to 42) (unknown origin) preformed fibrils at 50 uM after 24 hrs by uranyl acetate staining based transmission electron microscopic analysis
T1 sequence (P05067 whole entry): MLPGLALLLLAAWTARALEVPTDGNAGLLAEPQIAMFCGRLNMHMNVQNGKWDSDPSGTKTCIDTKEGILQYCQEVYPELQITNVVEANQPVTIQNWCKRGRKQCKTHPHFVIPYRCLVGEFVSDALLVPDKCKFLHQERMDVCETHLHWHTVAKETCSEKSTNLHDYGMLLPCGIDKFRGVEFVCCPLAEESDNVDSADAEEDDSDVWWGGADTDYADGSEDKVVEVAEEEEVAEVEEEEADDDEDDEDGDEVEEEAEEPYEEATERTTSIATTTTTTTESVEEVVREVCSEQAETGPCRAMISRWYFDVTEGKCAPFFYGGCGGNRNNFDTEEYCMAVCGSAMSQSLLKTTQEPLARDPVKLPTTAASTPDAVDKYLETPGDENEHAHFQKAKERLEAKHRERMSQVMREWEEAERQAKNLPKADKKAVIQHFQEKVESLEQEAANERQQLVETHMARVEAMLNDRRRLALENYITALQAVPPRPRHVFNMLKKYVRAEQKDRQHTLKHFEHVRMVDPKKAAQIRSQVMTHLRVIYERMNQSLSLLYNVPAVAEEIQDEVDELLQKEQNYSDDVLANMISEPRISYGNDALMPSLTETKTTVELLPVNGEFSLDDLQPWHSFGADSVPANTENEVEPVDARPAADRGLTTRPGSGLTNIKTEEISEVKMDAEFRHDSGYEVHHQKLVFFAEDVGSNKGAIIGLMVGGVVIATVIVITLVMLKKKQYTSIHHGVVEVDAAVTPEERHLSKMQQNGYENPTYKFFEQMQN

Row | Activity | Structure (SMILES)
1 | Active | Oc1ccc(/C=C/c2cc(O)cc(O)c2)cc1 [RESVERATROL]
2 | Active | O=c1cc(/C=C/c2ccc(O)cc2)occ1O
3 | Active | O=c1cc(/C=C/c2ccccc2O)occ1O

target: T1, Amyloid-beta precursor protein; assay: Disaggregation of Cu2+-induced amyloid beta (1 to 42) (unknown origin) preformed fibrils assessed as remaining amyloid beta aggregation level at […] after 24 hrs by thioflavin-T fluorescence assay

Row | Activity | Structure (SMILES)
4 | 68% | O=c1cc(/C=C/c2ccc(O)cc2)occ1O
5 | 62% | O=c1cc(/C=C/c2ccccc2O)occ1O

target: T1, Amyloid-beta precursor protein; assay: Disaggregation of Fe3+-induced amyloid beta (1 to 42) (unknown origin) preformed fibrils at 75 uM after 24 hrs by uranyl acetate staining based transmission electron microscopic analysis

Row | Activity | Structure (SMILES)
6 | Active | Oc1ccc(/C=C/c2cc(O)cc(O)c2)cc1 [RESVERATROL]
7 | Active | O=c1cc(/C=C/c2ccc(O)cc2)occ1O
8 | Active | O=c1cc(/C=C/c2ccccc2O)occ1O

test system: not listed separately; assay: Metal chelating activity assessed as inhibition of Cu2+-induced amyloid beta (1 to 42 residues) fibrils after 24 hrs by thioflavin-T fluorescence assay

Row | inhibition | Structure (SMILES)
9 | inactive | O=c1cc(/C=C/c2ccc(O)cc2)occ1O
10 | inactive | O=c1cc(/C=C/c2ccccc2O)occ1O

test system: not listed separately; assay: Metal chelating activity assessed as compound-nitriloacetate Fe3+ complex formation by UV-spectrophotometric analysis

Row | Activity | Structure (SMILES)
11 | Active | O=c1cc(/C=C/c2ccc(O)cc2)occ1O

target: T1, Amyloid-beta precursor protein; assay: Disaggregation of Fe3+-induced amyloid beta (1 to 42) (unknown origin) preformed fibrils assessed as remaining amyloid beta aggregation level at […] after 24 hrs by thioflavin-T fluorescence assay

Row | Activity | Structure (SMILES)
12 | 58% | Oc1ccc(/C=C/c2cc(O)cc(O)c2)cc1 [RESVERATROL]
13 | 14% | O=c1cc(/C=C/c2ccc(O)cc2)occ1O
14 | 17% | O=c1cc(/C=C/c2ccccc2O)occ1O

test system: not listed separately; assay: Metal chelating activity assessed as inhibition of Cu2+-induced amyloid beta (1 to 42 residues) fibrils at 50 uM after 24 hrs by uranyl acetate staining based transmission electron microscopic analysis

Row | inhibition | Structure (SMILES)
15 | Active | Oc1ccc(/C=C/c2cc(O)cc(O)c2)cc1 [RESVERATROL]
16 | Active | O=c1cc(/C=C/c2ccc(O)cc2)occ1O
17 | Active | O=c1cc(/C=C/c2ccccc2O)occ1O

test system: not listed separately; assay: Metal chelating activity assessed as inhibition of Fe3+-induced amyloid beta (1 to 42 residues) fibrils by measuring fluorescence level after 24 hrs by thioflavin-T fluorescence assay; set-up: scale not given: the % may be the effect or the level left

Row | Activity | Structure (SMILES)
18 | 19% | O=c1cc(/C=C/c2ccc(O)cc2)occ1O
19 | 16% | O=c1cc(/C=C/c2ccccc2O)occ1O

test system: not listed separately; assay: Metal chelating activity assessed as inhibition of Fe3+-induced amyloid beta (1 to 42 residues) fibrils at 50 uM after 24 hrs by uranyl acetate staining based transmission electron microscopic analysis

Row | inhibition | Structure (SMILES)
20 | Active | Oc1ccc(/C=C/c2cc(O)cc(O)c2)cc1 [RESVERATROL]
21 | Active | O=c1cc(/C=C/c2ccc(O)cc2)occ1O
22 | Active | O=c1cc(/C=C/c2ccccc2O)occ1O

target: T1, Amyloid-beta precursor protein; assay: Inhibition of HFIP-pretreated amyloid beta (1 to 42) (unknown origin) self-induced aggregation after 24 hrs by thioflavin-T fluorescence assay

Row | IC50 | Structure (SMILES)
23 | 7.93 µM | COc1ccccc1/C=C/c1cc(=O)c(O)co1
24 | 17.7 µM | O=c1cc(/C=C/c2cccc(F)c2)occ1O
25 | 8.29 µM | O=c1cc(/C=C/c2ccccc2O)occ1O

More lines, now with the values behind:

Row | Structure (SMILES) | IC50
26 | CN(C)c1ccc(/C=C/c2cc(=O)c(O)co2)cc1 | 5.92 µM
27 | O=c1cc(/C=C/c2cc(O)cc(O)c2)occ1O | 17.9 µM
28 | O=c1cc(/C=C/c2ccc(O)cc2)occ1O | 7.2 µM

target: T1, Amyloid-beta precursor protein; assay: Disaggregation of self-induced amyloid beta (1 to 42) (unknown origin) preformed fibrils at 50 uM after 24 hrs by uranyl acetate staining based transmission electron microscopic analysis

Row | Activity | Structure (SMILES)
29 | Active | Oc1ccc(/C=C/c2cc(O)cc(O)c2)cc1 [RESVERATROL]
30 | Active | O=c1cc(/C=C/c2ccc(O)cc2)occ1O
31 | Active | O=c1cc(/C=C/c2ccccc2O)occ1O

test system: not listed separately; assay: Antioxidant activity assessed as ABTS radical scavenging activity incubated for 10 mins in dark; assay type: functional

Row | IC50 | Structure (SMILES)
32 | 3.47 µM | COc1ccccc1/C=C/c1cc(=O)c(O)co1
33 | 3.45 µM | O=c1cc(/C=C/c2cccc(F)c2)occ1O
34 | 2.25 µM | O=c1cc(/C=C/c2ccccc2)occ1O
35 | 1.18 µM | O=c1cc(/C=C/c2ccccc2O)occ1O

Further lines, the compound ahead of its results:

Row | Structure (SMILES) | IC50
36 | CCOc1ccc(/C=C/c2cc(=O)c(O)co2)cc1 | 4.21 µM
37 | CN(C)c1ccc(/C=C/c2cc(=O)c(O)co2)cc1 | 3.05 µM
38 | O=c1cc(/C=C/c2ccc([N+](=O)[O-])cc2)occ1O | 1.7 µM
39 | Oc1ccc(/C=C/c2cc(O)cc(O)c2)cc1 [RESVERATROL] | 0.76 µM
40 | O=c1cc(/C=C/c2cc(O)cc(O)c2)occ1O | 1.19 µM
41 | O=c1cc(/C=C/c2ccc(O)cc2)occ1O | 1.94 µM
42 | O=c1cc(/C=C/c2ccc(Cl)cc2)occ1O | 1.95 µM
43 | Cc1c(C)c2c(c(C)c1O)CCC(C)(C(=O)O)O2 (stereo unspecified) [TROLOX] | 3.89 µM
44 | COc1cc(/C=C/c2cc(=O)c(O)co2)cc(OC)c1 | 1.79 µM

test system: not listed separately; assay: Metal chelating activity assessed as inhibition of Fe2+-induced amyloid beta (1 to 42 residues) fibrils after 24 hrs by thioflavin-T fluorescence assay

Row | inhibition | Structure (SMILES)
45 | inactive | O=c1cc(/C=C/c2ccc(O)cc2)occ1O
46 | inactive | O=c1cc(/C=C/c2ccccc2O)occ1O

target: T1, Amyloid-beta precursor protein; assay: Inhibition of HFIP-pretreated amyloid beta (1 to 42) (unknown origin) self-induced aggregation at 20 uM after 24 hrs by thioflavin-T fluorescence assay relative to control

Row | inhibition | Structure (SMILES)
47 | 61.1% | COc1ccccc1/C=C/c1cc(=O)c(O)co1
48 | 58% | O=c1cc(/C=C/c2cccc(F)c2)occ1O
49 | 42.5% | O=c1cc(/C=C/c2ccccc2)occ1O
50 | 63.6% | O=c1cc(/C=C/c2ccccc2O)occ1O

Continued, compound first:

Row | Structure (SMILES) | inhibition
51 | CCOc1ccc(/C=C/c2cc(=O)c(O)co2)cc1 | 38.2%
52 | CN(C)c1ccc(/C=C/c2cc(=O)c(O)co2)cc1 | 61.2%
53 | O=c1cc(/C=C/c2cc(O)cc(O)c2)occ1O | 56.9%
54 | O=c1cc(/C=C/c2ccc(O)cc2)occ1O | 68.5%
55 | O=c1cc(/C=C/c2ccc(Cl)cc2)occ1O | 18%
56 | COc1cc(/C=C/c2cc(=O)c(O)co2)cc(OC)c1 | 18.6%
